From ChEMBL document CHEMBL4507329, “Data for DCP probe BTZO-1” (2021)

How the values were obtained:
[1] = biological target: STE20/SPS1-related proline-alanine-rich protein kinase (Homo sapiens) (UniProt Q9UEW8); settings: Compound concentration 1000.0 nM
[2] = biological target: SRSF protein kinase 1 (Homo sapiens) (UniProt Q96SB4); settings: Compound concentration 1000.0 nM
[3] = biological target: Serine/threonine-protein kinase ULK2 (Homo sapiens) (UniProt Q8IYT8); settings: Compound concentration 1000.0 nM
Sequence of Serine/threonine-protein kinase ULK2 (Homo sapiens) (Q8IYT8 whole entry): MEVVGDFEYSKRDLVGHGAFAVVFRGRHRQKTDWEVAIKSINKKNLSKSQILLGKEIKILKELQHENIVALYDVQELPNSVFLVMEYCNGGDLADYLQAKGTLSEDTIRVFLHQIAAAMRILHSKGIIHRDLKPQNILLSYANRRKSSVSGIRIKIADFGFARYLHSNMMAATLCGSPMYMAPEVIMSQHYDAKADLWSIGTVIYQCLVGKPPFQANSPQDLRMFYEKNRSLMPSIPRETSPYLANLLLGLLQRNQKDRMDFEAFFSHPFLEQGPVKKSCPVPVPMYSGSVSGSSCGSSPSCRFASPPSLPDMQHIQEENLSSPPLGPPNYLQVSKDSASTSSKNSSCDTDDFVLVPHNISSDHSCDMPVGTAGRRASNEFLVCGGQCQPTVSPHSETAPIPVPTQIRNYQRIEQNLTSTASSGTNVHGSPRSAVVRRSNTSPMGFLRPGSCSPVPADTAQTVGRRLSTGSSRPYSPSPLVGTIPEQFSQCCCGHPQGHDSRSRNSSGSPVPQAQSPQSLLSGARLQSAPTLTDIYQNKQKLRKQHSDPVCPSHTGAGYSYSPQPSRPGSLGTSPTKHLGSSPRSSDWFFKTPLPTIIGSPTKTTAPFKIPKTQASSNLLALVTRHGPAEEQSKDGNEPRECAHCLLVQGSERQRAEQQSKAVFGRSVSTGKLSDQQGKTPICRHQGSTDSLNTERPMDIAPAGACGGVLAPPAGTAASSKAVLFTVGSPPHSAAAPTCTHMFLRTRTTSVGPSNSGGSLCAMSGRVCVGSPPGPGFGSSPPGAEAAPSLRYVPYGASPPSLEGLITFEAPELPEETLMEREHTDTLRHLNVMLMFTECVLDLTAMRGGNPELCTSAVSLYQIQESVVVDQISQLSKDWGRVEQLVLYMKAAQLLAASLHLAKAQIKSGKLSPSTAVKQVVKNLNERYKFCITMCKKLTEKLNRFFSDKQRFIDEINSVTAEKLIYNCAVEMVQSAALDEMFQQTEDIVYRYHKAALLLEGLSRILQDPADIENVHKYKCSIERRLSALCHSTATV

[4] = biological target: 3-phosphoinositide-dependent protein kinase 1 (Homo sapiens) (UniProt O15530); settings: Compound concentration 1000.0 nM
[5] = biological target: Insulin receptor (Homo sapiens) (UniProt P06213); settings: Compound concentration 1000.0 nM
Sequence of Insulin receptor (Homo sapiens) (P06213 28-758 limits assumed): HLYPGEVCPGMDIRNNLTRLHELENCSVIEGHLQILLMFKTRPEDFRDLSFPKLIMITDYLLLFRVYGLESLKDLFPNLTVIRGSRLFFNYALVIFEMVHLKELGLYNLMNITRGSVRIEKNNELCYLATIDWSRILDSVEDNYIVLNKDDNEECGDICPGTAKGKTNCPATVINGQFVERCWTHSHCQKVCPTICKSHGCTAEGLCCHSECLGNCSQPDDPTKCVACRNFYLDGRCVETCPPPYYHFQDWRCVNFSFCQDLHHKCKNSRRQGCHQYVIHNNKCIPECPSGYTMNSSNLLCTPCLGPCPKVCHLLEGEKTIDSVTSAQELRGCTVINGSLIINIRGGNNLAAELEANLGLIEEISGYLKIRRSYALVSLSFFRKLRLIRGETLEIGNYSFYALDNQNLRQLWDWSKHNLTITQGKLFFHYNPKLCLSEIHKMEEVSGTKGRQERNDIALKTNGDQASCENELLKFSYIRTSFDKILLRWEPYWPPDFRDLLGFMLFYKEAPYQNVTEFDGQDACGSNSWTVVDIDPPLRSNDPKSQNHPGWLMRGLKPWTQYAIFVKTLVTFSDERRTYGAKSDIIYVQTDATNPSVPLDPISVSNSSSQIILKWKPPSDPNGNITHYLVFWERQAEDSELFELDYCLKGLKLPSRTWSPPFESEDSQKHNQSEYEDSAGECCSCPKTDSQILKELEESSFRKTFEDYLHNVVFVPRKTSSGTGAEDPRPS
Sequence of Insulin receptor (Homo sapiens) (P06213 763-1382 limits assumed): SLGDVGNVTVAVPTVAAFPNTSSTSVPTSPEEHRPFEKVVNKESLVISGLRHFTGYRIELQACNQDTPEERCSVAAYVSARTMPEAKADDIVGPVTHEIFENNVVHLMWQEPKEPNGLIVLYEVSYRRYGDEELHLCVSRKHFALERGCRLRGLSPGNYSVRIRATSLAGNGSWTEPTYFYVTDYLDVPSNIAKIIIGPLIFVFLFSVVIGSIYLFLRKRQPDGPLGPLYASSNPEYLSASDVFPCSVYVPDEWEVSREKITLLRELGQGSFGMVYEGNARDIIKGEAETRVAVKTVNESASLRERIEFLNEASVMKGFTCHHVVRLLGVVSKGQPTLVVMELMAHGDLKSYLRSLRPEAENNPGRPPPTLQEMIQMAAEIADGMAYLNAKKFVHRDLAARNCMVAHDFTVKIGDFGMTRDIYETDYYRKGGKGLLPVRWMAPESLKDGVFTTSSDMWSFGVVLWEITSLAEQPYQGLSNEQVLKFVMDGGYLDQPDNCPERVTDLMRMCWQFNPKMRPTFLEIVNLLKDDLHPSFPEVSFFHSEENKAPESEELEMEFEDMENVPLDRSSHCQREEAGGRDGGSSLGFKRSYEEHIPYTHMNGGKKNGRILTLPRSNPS

[6] = biological target: Testis-specific serine/threonine-protein kinase 1 (Homo sapiens) (UniProt Q9BXA7); settings: Compound concentration 1000.0 nM
[7] = biological target: T1, Macrophage migration inhibitory factor (Homo sapiens) (UniProt P14174); experiment: ARE-Luc Reporter Assay (Activation of ARE (antioxidant response element)-mediated cytoprotective gene expression)
T1 sequence (whole entry): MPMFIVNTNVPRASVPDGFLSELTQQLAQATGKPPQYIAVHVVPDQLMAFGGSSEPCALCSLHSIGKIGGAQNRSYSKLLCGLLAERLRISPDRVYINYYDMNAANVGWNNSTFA

[8] = biological target: Serine/threonine-protein kinase mTOR (Homo sapiens) (UniProt P42345); settings: Compound concentration 1000.0 nM
[9] = biological target: Cyclin-dependent kinase-like 5 (Homo sapiens) (UniProt O76039); settings: Compound concentration 1000.0 nM
Sequence of Cyclin-dependent kinase-like 5 (Homo sapiens) (O76039 whole entry): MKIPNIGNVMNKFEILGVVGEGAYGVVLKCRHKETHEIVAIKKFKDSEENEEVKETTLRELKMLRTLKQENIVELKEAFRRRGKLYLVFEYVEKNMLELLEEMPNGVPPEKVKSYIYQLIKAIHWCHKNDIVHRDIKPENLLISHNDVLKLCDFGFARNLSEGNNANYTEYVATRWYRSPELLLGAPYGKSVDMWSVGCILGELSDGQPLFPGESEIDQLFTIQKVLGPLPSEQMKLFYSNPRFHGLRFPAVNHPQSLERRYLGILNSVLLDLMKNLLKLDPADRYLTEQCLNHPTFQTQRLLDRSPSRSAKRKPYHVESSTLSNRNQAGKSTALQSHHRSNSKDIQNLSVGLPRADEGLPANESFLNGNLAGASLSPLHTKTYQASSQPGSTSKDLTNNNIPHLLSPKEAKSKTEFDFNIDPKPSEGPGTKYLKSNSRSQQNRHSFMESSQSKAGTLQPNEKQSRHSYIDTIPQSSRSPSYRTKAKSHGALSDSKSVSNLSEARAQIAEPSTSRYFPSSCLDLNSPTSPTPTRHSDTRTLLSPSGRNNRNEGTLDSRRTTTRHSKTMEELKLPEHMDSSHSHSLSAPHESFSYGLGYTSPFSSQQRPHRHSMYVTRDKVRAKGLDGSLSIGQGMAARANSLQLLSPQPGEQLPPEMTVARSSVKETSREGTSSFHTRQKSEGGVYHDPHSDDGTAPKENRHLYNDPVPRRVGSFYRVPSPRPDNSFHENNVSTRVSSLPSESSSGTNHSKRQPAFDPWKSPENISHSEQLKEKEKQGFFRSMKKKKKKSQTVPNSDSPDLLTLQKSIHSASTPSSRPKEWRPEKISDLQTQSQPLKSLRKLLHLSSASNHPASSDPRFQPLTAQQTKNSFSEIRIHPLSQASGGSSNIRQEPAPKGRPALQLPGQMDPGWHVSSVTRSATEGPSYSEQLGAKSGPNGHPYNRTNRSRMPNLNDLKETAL

[10] = biological target: Myosin light chain kinase family member 4 (Homo sapiens) (UniProt Q86YV6); settings: Compound concentration 1000.0 nM
[11] = biological target: Serine/threonine-protein kinase OSR1 (Homo sapiens) (UniProt O95747); settings: Compound concentration 1000.0 nM
[12] = biological target: Dual specificity tyrosine-phosphorylation-regulated kinase 1A (Homo sapiens) (UniProt Q13627); settings: Compound concentration 1000.0 nM
[13] = biological target: Serine/threonine-protein kinase DCLK3 (Homo sapiens) (UniProt Q9C098); settings: Compound concentration 1000.0 nM
[14] = biological target: Homeodomain-interacting protein kinase 1 (Homo sapiens) (UniProt Q86Z02); settings: Compound concentration 1000.0 nM
[15] = biological target: Serine/threonine-protein kinase TAO3 (Homo sapiens) (UniProt Q9H2K8); settings: Compound concentration 1000.0 nM
[16] = biological target: Dual specificity tyrosine-phosphorylation-regulated kinase 2 (Homo sapiens) (UniProt Q92630); settings: Compound concentration 1000.0 nM
Sequence of Dual specificity tyrosine-phosphorylation-regulated kinase 2 (Homo sapiens) (Q92630 whole entry): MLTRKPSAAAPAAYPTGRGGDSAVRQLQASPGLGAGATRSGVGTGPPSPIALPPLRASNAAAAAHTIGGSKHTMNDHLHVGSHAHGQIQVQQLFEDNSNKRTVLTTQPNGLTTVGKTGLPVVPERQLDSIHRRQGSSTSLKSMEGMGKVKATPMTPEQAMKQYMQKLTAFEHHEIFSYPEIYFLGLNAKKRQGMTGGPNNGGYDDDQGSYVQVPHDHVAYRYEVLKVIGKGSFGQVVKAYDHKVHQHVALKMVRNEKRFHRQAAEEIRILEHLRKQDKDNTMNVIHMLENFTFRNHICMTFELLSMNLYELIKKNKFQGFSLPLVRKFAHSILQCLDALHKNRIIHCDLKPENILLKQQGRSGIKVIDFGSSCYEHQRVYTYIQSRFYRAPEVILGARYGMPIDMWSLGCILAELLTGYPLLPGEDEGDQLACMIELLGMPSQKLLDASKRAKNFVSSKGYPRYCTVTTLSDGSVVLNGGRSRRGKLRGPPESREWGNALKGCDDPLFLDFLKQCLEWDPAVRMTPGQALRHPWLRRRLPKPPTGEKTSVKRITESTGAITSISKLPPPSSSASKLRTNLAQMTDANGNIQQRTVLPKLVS

[17] = biological target: Serine/threonine-protein kinase Nek7 (Homo sapiens) (UniProt Q8TDX7); settings: Compound concentration 1000.0 nM
[18] = biological target: Cyclin-dependent kinase 4 (Homo sapiens) (UniProt P11802); settings: Compound concentration 1000.0 nM
[19] = biological target: Serine/threonine-protein kinase SIK2 (Homo sapiens) (UniProt Q9H0K1); settings: Compound concentration 1000.0 nM
[20] = tested on: Epidermal growth factor receptor (Homo sapiens), P00533 [UNDEFINED MUTATION]; settings: Compound concentration 1000.0 nM
[21] = biological target: MAP kinase-activated protein kinase 5 (Homo sapiens) (UniProt Q8IW41); settings: Compound concentration 1000.0 nM
[22] = biological target: SRSF protein kinase 3 (Homo sapiens) (UniProt Q9UPE1); settings: Compound concentration 1000.0 nM
[23] = biological target: Mitogen-activated protein kinase kinase kinase 15 (Homo sapiens) (UniProt Q6ZN16); settings: Compound concentration 1000.0 nM
[24] = biological target: Casein kinase II subunit alpha' (Homo sapiens) (UniProt P19784); settings: Compound concentration 1000.0 nM
[25] = biological target: Microtubule-associated serine/threonine-protein kinase 1 (Homo sapiens) (UniProt Q9Y2H9); settings: Compound concentration 1000.0 nM
[26] = biological target: Tyrosine-protein kinase ABL2 (Homo sapiens) (UniProt P42684); settings: Compound concentration 1000.0 nM
[27] = biological target: Delta-type opioid receptor (Homo sapiens) (UniProt P41143); settings: Compound concentration 10.0 uM
[28] = biological target: Serine/threonine-protein kinase 32C (Homo sapiens) (UniProt Q86UX6); settings: Compound concentration 1000.0 nM
[29] = biological target: Calcium/calmodulin-dependent protein kinase type 1 (Homo sapiens) (UniProt Q14012); settings: Compound concentration 1000.0 nM
Sequence of Calcium/calmodulin-dependent protein kinase type 1 (Homo sapiens) (Q14012 whole entry, looked up): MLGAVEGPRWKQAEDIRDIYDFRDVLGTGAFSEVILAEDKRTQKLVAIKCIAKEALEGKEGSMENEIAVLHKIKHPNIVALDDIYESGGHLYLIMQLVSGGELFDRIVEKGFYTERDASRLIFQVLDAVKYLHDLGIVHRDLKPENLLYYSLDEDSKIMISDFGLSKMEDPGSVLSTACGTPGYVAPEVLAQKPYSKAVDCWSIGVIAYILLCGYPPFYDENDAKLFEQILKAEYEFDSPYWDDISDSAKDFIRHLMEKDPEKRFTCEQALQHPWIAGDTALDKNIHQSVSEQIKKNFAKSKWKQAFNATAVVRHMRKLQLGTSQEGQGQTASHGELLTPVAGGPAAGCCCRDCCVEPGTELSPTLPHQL

[30] = biological target: Dual specificity protein kinase CLK3 (Homo sapiens) (UniProt P49761); settings: Compound concentration 1000.0 nM
[31] = biological target: Platelet-derived growth factor receptor alpha (Homo sapiens) (UniProt P16234); settings: Compound concentration 1000.0 nM
[32] = biological target: Interferon-induced, double-stranded RNA-activated protein kinase (Homo sapiens) (UniProt P19525); settings: Compound concentration 1000.0 nM
[33] = biological target: Ephrin type-B receptor 1 (Homo sapiens) (UniProt P54762); settings: Compound concentration 1000.0 nM
[34] = biological target: Serine/threonine-protein kinase LATS1 (Homo sapiens) (UniProt O95835); settings: Compound concentration 1000.0 nM
[35] = biological target: Casein kinase I isoform epsilon (Homo sapiens) (UniProt P49674); settings: Compound concentration 1000.0 nM
[36] = biological target: Calcium/calmodulin-dependent protein kinase type II subunit delta (Homo sapiens) (UniProt Q13557); settings: Compound concentration 1000.0 nM
Sequence of Calcium/calmodulin-dependent protein kinase type II subunit delta (Homo sapiens) (Q13557 whole entry): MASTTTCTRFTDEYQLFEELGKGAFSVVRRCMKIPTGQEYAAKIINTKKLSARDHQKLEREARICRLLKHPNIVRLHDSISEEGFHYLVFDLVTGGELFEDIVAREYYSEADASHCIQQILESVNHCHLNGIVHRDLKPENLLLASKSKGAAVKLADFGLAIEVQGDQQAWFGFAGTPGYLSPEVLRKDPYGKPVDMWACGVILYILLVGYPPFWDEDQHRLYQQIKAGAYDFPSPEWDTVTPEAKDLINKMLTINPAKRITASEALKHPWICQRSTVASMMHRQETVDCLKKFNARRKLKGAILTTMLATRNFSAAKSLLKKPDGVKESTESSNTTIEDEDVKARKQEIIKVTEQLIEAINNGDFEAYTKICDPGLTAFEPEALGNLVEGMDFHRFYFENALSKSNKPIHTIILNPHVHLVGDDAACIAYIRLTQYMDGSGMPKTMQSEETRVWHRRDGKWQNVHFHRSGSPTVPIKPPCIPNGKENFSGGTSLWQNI

[37] = biological target: Serine/threonine-protein kinase 38 (Homo sapiens) (UniProt Q15208); settings: Compound concentration 1000.0 nM
[38] = biological target: Mitogen-activated protein kinase kinase kinase 6 (Homo sapiens) (UniProt O95382); settings: Compound concentration 1000.0 nM
[39] = biological target: LIM domain kinase 2 (Homo sapiens) (UniProt P53671); settings: Compound concentration 1000.0 nM
[40] = biological target: Phosphorylase b kinase gamma catalytic chain, skeletal muscle/heart isoform (Homo sapiens) (UniProt Q16816); settings: Compound concentration 1000.0 nM
[41] = biological target: Cyclin-dependent kinase 15 (Homo sapiens) (UniProt Q96Q40); settings: Compound concentration 1000.0 nM
[42] = biological target: Serine/threonine-protein kinase/endoribonuclease IRE1 (Homo sapiens) (UniProt O75460); settings: Compound concentration 1000.0 nM
[43] = biological target: Serine/threonine-protein kinase ULK1 (Homo sapiens) (UniProt O75385); settings: Compound concentration 1000.0 nM

O=C1NC(c2ccccn2)Sc2ccccc21 (configuration not stated) [BTZO-4]
residual activity [1]: 89% | residual activity [2]: 73% | residual activity [3]: 76% | residual activity [4]: 97% | residual activity [5]: 88% | residual activity [6]: 66% | MEC1.5 [7]: > 1 µM | MEC2.0 [7]: > 10 µM | residual activity [8]: 100% | residual activity [9]: 100% | residual activity [10]: 90% | residual activity [11]: 100% | residual activity [12]: 100% | residual activity [13]: 69% | residual activity [14]: 75% | residual activity [15]: 77% | residual activity [16]: 99% | residual activity [17]: 68% | residual activity [18]: 81% | residual activity [19]: 96% | residual activity [20]: 92% | residual activity [21]: 73% | residual activity [22]: 100% | residual activity [23]: 85% | residual activity [24]: 100% | residual activity [25]: 91% | residual activity [26]: 85% | inhibition [27]: -0.624% | residual activity [28]: 88% | residual activity [29]: 91% | residual activity [30]: 97% | residual activity [31]: 76% | residual activity [32]: 91% | residual activity [33]: 90% | residual activity [34]: 98% | residual activity [35]: 98% | residual activity [36]: 75% | residual activity [37]: 76% | residual activity [38]: 65% | residual activity [39]: 92% | residual activity [40]: 76% | residual activity [41]: 63% | residual activity [42]: 100% | residual activity [43]: 100%

O=c1nc(-c2ccccn2)sc2ccccc12 [BTZO-1]
residual activity [1]: 100% | residual activity [2]: 83% | residual activity [3]: 100% | residual activity [4]: 100% | residual activity [5]: 100% | residual activity [6]: 100% | MEC2.0 [7]: 0.82 µM | residual activity [8]: 100% | residual activity [9]: 100% | residual activity [10]: 87% | residual activity [11]: 100% | residual activity [12]: 91% | residual activity [13]: 97% | residual activity [14]: 61% | residual activity [15]: 73% | residual activity [16]: 100% | residual activity [17]: 75% | residual activity [18]: 90% | residual activity [19]: 86% | residual activity [20]: 84% | residual activity [21]: 92% | residual activity [22]: 100% | residual activity [23]: 100% | residual activity [24]: 92% | residual activity [25]: 73% | residual activity [26]: 87% | inhibition [27]: 4.81% | residual activity [28]: 100% | residual activity [29]: 92% | residual activity [30]: 96% | residual activity [31]: 89% | residual activity [32]: 100% | residual activity [33]: 88% | residual activity [34]: 95% | residual activity [35]: 88% | residual activity [36]: 90% | residual activity [37]: 76% | residual activity [38]: 71% | residual activity [39]: 100% | residual activity [40]: 84% | residual activity [41]: 75% | residual activity [42]: 100% | residual activity [43]: 100%
